Measured values taken from ChEMBL document CHEMBL1122928, “Stereostructure-activity relationship of opioid agonist and antagonist bivalent ligands. Evidence for bridging between vicinal opioid receptors” (J Med Chem, 1985).

Columns and labels:
[1] = molecular target: T1, Opioid receptors; mu/kappa/delta (Homo sapiens) (UniProt P41145+P41143+P35372); assay: In vitro agonist activity towards opioid receptor on the electrically stimulated Guinea pig ileal longitudinal muscle (GPI); morphine IC50/ agonist IC50 in the same tissue; format: functional; conditions: Cavia porcellus; target entry is the homologue from another species
T1 sequence (P35372 whole entry, looked up): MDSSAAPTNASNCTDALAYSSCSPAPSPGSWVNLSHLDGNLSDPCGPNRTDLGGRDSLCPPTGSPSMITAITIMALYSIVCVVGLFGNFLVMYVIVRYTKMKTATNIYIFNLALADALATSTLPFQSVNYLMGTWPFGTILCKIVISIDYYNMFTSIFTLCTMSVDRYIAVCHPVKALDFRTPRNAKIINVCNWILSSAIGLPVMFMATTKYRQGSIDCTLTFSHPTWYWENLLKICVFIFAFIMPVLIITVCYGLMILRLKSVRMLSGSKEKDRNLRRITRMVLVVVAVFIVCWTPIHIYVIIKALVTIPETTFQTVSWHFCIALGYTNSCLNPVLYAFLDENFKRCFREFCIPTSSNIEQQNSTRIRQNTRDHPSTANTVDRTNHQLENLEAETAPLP
T1 sequence (P41143 whole entry, looked up): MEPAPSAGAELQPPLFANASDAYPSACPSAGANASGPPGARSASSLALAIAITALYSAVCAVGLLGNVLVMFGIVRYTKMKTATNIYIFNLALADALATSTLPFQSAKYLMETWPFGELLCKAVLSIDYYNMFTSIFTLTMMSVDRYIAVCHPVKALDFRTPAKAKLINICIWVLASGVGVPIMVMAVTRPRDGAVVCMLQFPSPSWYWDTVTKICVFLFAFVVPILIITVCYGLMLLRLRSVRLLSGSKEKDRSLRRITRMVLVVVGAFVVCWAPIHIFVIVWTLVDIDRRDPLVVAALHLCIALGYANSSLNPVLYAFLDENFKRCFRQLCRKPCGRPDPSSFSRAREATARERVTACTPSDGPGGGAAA
T1 sequence (P41145 whole entry, looked up): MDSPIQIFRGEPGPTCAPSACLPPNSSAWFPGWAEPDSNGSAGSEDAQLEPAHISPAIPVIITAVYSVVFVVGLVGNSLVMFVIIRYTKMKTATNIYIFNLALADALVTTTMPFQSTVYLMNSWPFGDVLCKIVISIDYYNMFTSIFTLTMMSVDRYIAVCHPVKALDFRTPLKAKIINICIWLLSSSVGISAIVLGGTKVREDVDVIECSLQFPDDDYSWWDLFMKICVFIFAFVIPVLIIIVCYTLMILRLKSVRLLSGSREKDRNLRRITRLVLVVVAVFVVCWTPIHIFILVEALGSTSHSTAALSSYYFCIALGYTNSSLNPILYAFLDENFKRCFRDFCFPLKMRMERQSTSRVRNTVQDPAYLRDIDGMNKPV

[2] = molecular target: T1, Opioid receptors; mu/kappa/delta (Homo sapiens); assay: The relative potency was evaluated with respect to morphine.; conditions: Cavia porcellus

SMILES	Potency ratio [1]	Relative potency [2]
CN1CCC23c4c5ccc(O)c4OC2C(NC(=O)CNC(=O)CNC(=O)CCC(=O)NCC(=O)NCC(=O)NC2CCC4(O)[C@H]6Cc7ccc(O)c8c7C4(CCN6C)C2O8)CCC3(O)[C@H]1C5 (stereo partly drawn)	7.6	–
O=C(CCC(=O)NCC(=O)NCC(=O)NC1CCC2(O)[C@H]3Cc4ccc(O)c5c4C2(CCN3CC2CC2)C1O5)NCC(=O)NCC(=O)NC1CCC2(O)[C@@H]3Cc4ccc(O)c5c4C2(CCN3CC2CC2)C1O5 (single isomer, unassigned; (-))	181	33.5
O=C(CCC(=O)NCC(=O)NCC(=O)NC1CCC2(O)[C@H]3Cc4ccc(O)c5c4C2(CCN3CC2CC2)C1O5)NCC(=O)NCC(=O)NC1CCC2(O)[C@H]3Cc4ccc(O)c5c4C2(CCN3CC2CC2)C1O5 (stereo partly drawn)	7.8	1.4
CC(=O)NCC(=O)NCC(=O)NC1CCC2(O)[C@H]3Cc4ccc(O)c5c4C2(CCN3C)C1O5 (stereo partly drawn)	1.9	–
CC(=O)NCC(=O)NCC(=O)NC1CCC2(O)[C@H]3Cc4ccc(O)c5c4C2(CCN3CC2CC2)C1O5 (stereo partly drawn)	5.4	1
